Holding throughout (assay type): functional
The subject of assay [1] is Aspergillus niger. Nature of the assay: Antifungal activity against Aspergillus niger MTCC 281 at 200 ug/ml after 72 hr by cup-plate method. The conditions noted are these: MTCC 281, 72 h, read-out: IZ.
For assay [2], the system named is Monascus purpureus. In words: Antifungal activity against Monascus purpureus MTCC 369 at 200 ug/ml after 72 hr by cup-plate method. Particulars: MTCC 369, 72 h, read-out: IZ.
Assay [3] relates to Aspergillus flavus. In words: Antifungal activity against Aspergillus flavus MTCC 277 at 200 ug/ml after 72 hr by cup-plate method. The conditions noted are these: MTCC 277, 72 h, read-out: IZ.
Assay [4] concerns Penicillium citrinum. In words: Antifungal activity against Penicillium citrinum NCIM 768 at 200 ug/ml after 72 hr by cup-plate method. Particulars: NCIM 768, 72 h, read-out: IZ.
Assay [5] has as its system Monascus purpureus. Nature of the assay: Antifungal activity against Monascus purpureus MTCC 369 at 100 ug/ml after 72 hr by cup-plate method. The conditions noted are these: MTCC 369, 72 h, read-out: IZ.
Assay [6] has as its system Aspergillus niger. In words: Antifungal activity against Aspergillus niger MTCC 281 at 100 ug/ml after 72 hr by cup-plate method. The conditions noted are these: MTCC 281, 72 h, read-out: IZ.
Assay [7] deals with Aspergillus flavus. Nature of the assay: Antifungal activity against Aspergillus flavus MTCC 277 at 100 ug/ml after 72 hr by cup-plate method. Particulars: MTCC 277, 72 h, read-out: IZ.
Assay [8] concerns Penicillium citrinum. In words: Antifungal activity against Penicillium citrinum NCIM 768 at 100 ug/ml after 72 hr by cup-plate method. The conditions noted are these: NCIM 768, 72 h, read-out: IZ.

The structures appear in SMILES notation.

As for `Fc1ccc(NCc2cc3ccccc3nc2Cl)cc1`, the zone of inhibition at 200 µg/mL in the assay on Aspergillus niger [1] was found to be 14.8 mm; with Monascus purpureus [2] it was 9.8 mm; in the assay on Aspergillus flavus [3] it was 15 mm; with Penicillium citrinum [4], 8.53 mm.
On to `Clc1nc2ccccc2cc1CNc1ccc(Br)cc1`, for which the zone of inhibition at 200 µg/mL in the assay on Aspergillus niger [1] stood at 13.7 mm; with Monascus purpureus [2], 8 mm; with Aspergillus flavus [3], 10.5 mm; with Penicillium citrinum [4], 9.86 mm.
Turning to `CN(C/C=C/C#CC(C)(C)C)Cc1cccc2ccccc12` [TERBINAFINE], the zone of inhibition at 100 µg/mL was found to be 26.2 mm with Monascus purpureus [5], 24.7 mm in the assay on Aspergillus niger [6], 25.1 mm in the assay with Aspergillus flavus [7] and 21.8 mm with Penicillium citrinum [8].
For the molecule `CN(Cc1cc2ccccc2nc1Cl)c1ccc(F)cc1`, the zone of inhibition at 200 µg/mL with Aspergillus niger [1] worked out at 15.9 mm; in the assay with Monascus purpureus [2] it was 11.5 mm; in the assay with Aspergillus flavus [3], 17.1 mm; in the assay on Penicillium citrinum [4] it was 9.77 mm.
For `Fc1ccc(NCc2cc3ccccc3nc2Cl)cc1Cl` the same measures were 17.8 mm, 11.5 mm, 19.7 mm and 9.73 mm.
For `CN(Cc1cc2ccccc2nc1Cl)c1ccc(Cl)cc1` the same measures were 17.1 mm, 10.5 mm, 17.7 mm and 9.85 mm.
For `Clc1ccccc1NCc1cc2ccccc2nc1Cl`, in that order: 13.9 mm, 7.33 mm, 10.6 mm and 7.06 mm.
Take `COc1ccc(NCc2cc3ccccc3nc2Cl)cc1`: the zone of inhibition at 200 µg/mL with Aspergillus niger [1] came out at 10.8 mm; in the assay on Monascus purpureus [2], 7.66 mm; in the assay with Aspergillus flavus [3] it was 13 mm; with Penicillium citrinum [4], 7.63 mm.
For `CN(Cc1cc2ccccc2nc1Cl)c1cccc(Cl)c1`, in that order: 15.2 mm, 9.63 mm, 12.1 mm and 11.1 mm.
For `Clc1ccc(NCc2cc3ccccc3nc2Cl)cc1Cl` the same measures were 19.6 mm, 9.7 mm, 18.7 mm and 8.76 mm.
For `Clc1nc2ccccc2cc1CNCc1ccccc1` the same measures were 15.7 mm, 8.4 mm, 14.5 mm and 9.06 mm.
As for `Cc1ccccc1NCc1cc2ccccc2nc1Cl`, the zone of inhibition at 200 µg/mL was determined as 8.66 mm in the assay on Aspergillus niger [1], 6.4 mm with Monascus purpureus [2], 7.03 mm in the assay with Aspergillus flavus [3] and 7.03 mm in the assay on Penicillium citrinum [4].
`Clc1cccc(NCc2cc3ccccc3nc2Cl)c1`: the zone of inhibition at 200 µg/mL in the assay on Aspergillus niger [1] came to 13.4 mm; in the assay on Monascus purpureus [2], 9.63 mm; in the assay on Aspergillus flavus [3], 11.6 mm; in the assay on Penicillium citrinum [4], 8.03 mm.
As for `Cc1cccc(NCc2cc3ccccc3nc2Cl)c1`, the zone of inhibition at 200 µg/mL with Aspergillus niger [1] came out at 9.53 mm; in the assay with Monascus purpureus [2], 7.6 mm; in the assay on Aspergillus flavus [3], 10.1 mm; in the assay on Penicillium citrinum [4], 5.73 mm.
For `Clc1ccc(NCc2cc3ccccc3nc2Cl)cc1`, the zone of inhibition at 200 µg/mL with Aspergillus niger [1] worked out at 15.9 mm; in the assay on Monascus purpureus [2], 9.73 mm; in the assay on Aspergillus flavus [3], 16 mm; in the assay with Penicillium citrinum [4] it was 10.3 mm.
For `Clc1nc2ccccc2cc1CNc1ccccc1`, in that order: 12 mm, 7.7 mm, 12.4 mm and 8.06 mm.
As for `CN(Cc1cc2ccccc2nc1Cl)c1ccc(F)c(Cl)c1`, the zone of inhibition at 200 µg/mL was 19.4 mm with Aspergillus niger [1], 13.1 mm in the assay on Monascus purpureus [2], 20.8 mm in the assay on Aspergillus flavus [3] and 10.4 mm with Penicillium citrinum [4].
For `O=[N+]([O-])c1ccc(NCc2cc3ccccc3nc2Cl)cc1`, in that order: 8.06 mm, 7.7 mm, 8.33 mm and 6.13 mm.
For `CN(Cc1cc2ccccc2nc1Cl)c1ccccc1` the same measures were 13.2 mm, 8.09 mm, 14.2 mm and 9.74 mm.
For `CN(Cc1cc2ccccc2nc1Cl)c1ccc(Cl)c(Cl)c1` the same measures were 21.1 mm, 10.4 mm, 19.5 mm and 11.1 mm.
Take `CCCCNCc1cc2ccccc2nc1Cl`: the zone of inhibition at 200 µg/mL is 9.47 mm in the assay on Aspergillus niger [1] and 8.25 mm in the assay on Aspergillus flavus [3].
As for `Clc1nc2ccccc2cc1CNC1CCCCC1`, in the assay on Aspergillus niger [1], the zone of inhibition at 200 µg/mL is 6.27 mm.
With `Cc1ccc(NCc2cc3ccccc3nc2Cl)cc1`, the zone of inhibition at 200 µg/mL was determined as 10.9 mm in the assay on Aspergillus niger [1], 7.63 mm in the assay with Monascus purpureus [2], 12.8 mm in the assay on Aspergillus flavus [3] and 8.06 mm with Penicillium citrinum [4].

Values taken from ChEMBL document CHEMBL3046541, “Design and synthesis of 2-chloroquinoline derivatives as non-azoles antimycotic agents” (2011).
